Test results reported in patent publication US20230322659A1, “STROBILURIN TYPE COMPOUNDS AND THEIR USE FOR COMBATING PHYTOPATHOGENIC FUNGI” (priority 2020, published 2023).

Legend:
[1] = test system: Phakopsora pachyrhizi (strain with amino acid substitution F129L in the mitochondrial cytochrome b protein); experiment: Use Example 1: protective control of soybean rust on soybeans (PHAKPA P2), greenhouse; type: in vivo; conditions: soybean seedlings inoculated 2 days after treatment, % diseased leaf area; for % PHAKPA Disease level P2 at 4 ppm: 4 ppm spray; for % PHAKPA Disease level P2 at 16 ppm: 16 ppm spray
Method: (§1) The compound was dissolved in a mixture of acetone and/or dimethylsulfoxide and the wetting agent/emulsifier Wettol, which is based on ethoxylated alkylphenoles, in a ratio (volume) solvent-emulsifier of 99 to 1 to give a total volume of 5 ml. Subsequently, water was added to total volume of 100 ml. This stock solution was then diluted with the described solvent-emulsifier-water mixture to the final concentration given in the table below.
(§2) Leaves of potted soybean seedlings were sprayed to run-off with the previously described spray solution, containing the concentration of active ingredient or their mixture as described below. The plants were allowed to air-dry. The trial plants were cultivated for 2 days in a greenhouse chamber at 23-27° C. and a relative humidity between 60 and 80%. Then the plants were inoculated with spores of Phakopsora pachyrhizi. The strain used contains the amino acid substitution F129L in the mitochondrial cytochrome b protein conferring resistance to Qo inhibitors. To ensure the success the artificial inoculation, the plants were transferred to a humid chamber with a relative humidity of about 95% and 20 to 24° C. for 24 hr. The trial plants were cultivated for up to 14 days in a greenhouse chamber at 23 to 27° C. and a relative humidity between 60 and 80%. The extent of fungal attack on the leaves was visually assessed as % diseased leaf area, the disease level of untreated controls was usually higher than 85%.
(§3) All test results below are given for the control of phytopathogenic fungi containing the amino acid substitution F129L in the mitochondrial cytochrome b protein conferring resistance to Qo inhibitors.

[2] = test system: Phakopsora pachyrhizi (strain with amino acid substitution F129L in the mitochondrial cytochrome b protein); experiment: Use Example 2: protective control of soybean rust on soybeans (PHAKPA P6), greenhouse; type: in vivo; conditions: soybean seedlings inoculated six days after treatment, % diseased leaf area; for % PHAKPA Disease level P6 at 4 ppm: 4 ppm spray; for % PHAKPA Disease level P6 at 16 ppm: 16 ppm spray
Method: as §1
as §2, with “active ingredient as described” for “active ingredient or their mixture as described”, “cultivated for six days in” for “cultivated for 2 days in”, “95% and 23 to 27°” for “95% and 20 to 24°”, “23 to 27° C. for” for “20 to 24° C. for”
as §3

Row | Compound | % PHAKPA Disease level P2 at 4 ppm [1] [%] | % PHAKPA Disease level P2 at 16 ppm [1] [%] | % PHAKPA Disease level P6 at 4 ppm [2] [%] | % PHAKPA Disease level P6 at 16 ppm [2] [%]
1 | CO/N=C(/C(=O)OC)c1cccc(C)c1CO/N=C/c1ccccc1 [Compound 1] | 100 | 96 | 90 | 83
2 | CNC(=O)/C(=N/OC)c1cccc(C)c1CO/N=C/c1ccccc1 [Compound 2] | 50 | 2 | 63 | 15
3 | CNC(=O)/C(=N/OC)c1cccc(C)c1CO/N=C/c1ccccc1C(F)(F)F [Compound 3] | 36 | 2 | 83 | 21
